One assay has as its target T1, human EDG-1 (Homo sapiens, UniProt P21453).
T1 construct: c-myc (N); expressed in transfected cells; host or cells: CHO cell clones (membrane preparation)
Description: EDG-1 (S1P1) GTP [γ-35S] binding assay (SPA). It is filed as biochemical. The conditions noted are these: membranes of CHO cells expressing human EDG-1. How it is done:
(§1) A. In vitro: A scintillation proximity assay (SPA) for measuring GTP [γ-^35S]binding to membranes prepared from CHO cells expressing human EDG/S1P receptors.
EDG-1 (S1P1) GTP [γ-^35S] binding assay: Membrane protein suspensions are prepared from CHO cell clones stably expressing a human EDG-1 N-terminal c-myc tag. Solution of test compounds ranging from 10 mM to 0.01 nM are prepared in DMSO/50 mM HCl and then diluted into assay buffer (20 mM HEPES, pH7.4, 100 mM NaCl, […], 0.1% fat free BSA). Assay buffer containing 10 mM GDP is mixed with wheat germ agglutinin-coated SPA-beads (1 mg/well) followed by the addition of human EDG-1 membrane protein suspension (10 μg/well) and test compound. The bead/membrane/compound assay components are then mixed for 10-15 minutes on a shaker at room temperature. GTP [γ-^35S] ([…]) and bead/membrane/compound assay mixture are added to individual wells of a 96 well Optiplate™(final volume 225 μl/well), sealed and incubated at room temperature for 110 to 120 minutes under constant shaking. After centrifugation (2000 rpm, 10 minutes) luminescence is measured with a TopCount™ instrument.
EC50 values are obtained by fitting the GTP [γ-^35S] binding curves (raw data) with the dose response curve-fitting tool of ORIGIN V. 6.1. […]

The test system of assay [1] is EDG-3, EDG-5, EDG-6 and EDG-8. The experiment in a line: EDG-3, -5, -6 and -8 GTP [γ-35S] binding assays (selectivity versus EDG-1). In kind it is biochemical, human. How it is done:
as §1
Concentrations of EDG receptor expressing membranes range between 13-19 μg per well.

Assay [2] has as its system peripheral blood lymphocytes. The experiment in a line: Measurement of circulating lymphocytes (blood lymphocyte depletion). It is filed as in vivo, mice (C57bl/6 male). The conditions noted are these: Mus musculus, mice, oral gavage, blood collected 6 and 24 hours after administration, read-out: ED50, effective dose required displaying 50% of blood lymphocyte depletion. How it is done: Measurements of circulating lymphocytes: Compounds are dissolved in DMSO and diluted to obtain a final concentration of 4% DMSO (v/v, final concentration) and then further diluted in a constant volume of Tween80 25%/H2O, v/v. Tween80 25%/H2O (200 μl), 4% DMSO, and FTY720 (10 μg) are included as negative and positive controls, respectively. Mice (C57bl/6 male, 6-10 week-old) are administered 250-300 μL of compound solution orally by gavages under short isoflurane anesthesia.
Blood is collected from the retro-orbital sinus 6 and 24 hours after drug administration under short isoflurane anesthesia. Whole blood samples are subjected to hematology analysis. Peripheral lymphocyte counts are determined using an automated analyzer. Subpopulations of peripheral blood lymphocytes are stained by fluorochrome-conjugated specific antibodies and analyzed using a fluorescent activating cell sorter (Facscalibur). Two mice are used to assess the lymphocyte depletion activity of each compound screened. The result is an ED50, which is defined as the effective dose required displaying 50% of blood lymphocyte depletion.

This note sets out measurements from patent US7718704B2, “Immunosuppressant compounds and compositions” (IRM LLC, priority 2004, dated 2010).

As usually defined, the EC50 is the midpoint of the concentration-response curve. Low values mean higher potency in that assay, high ones lower potency in that assay. The ED50 is the dose at which the effect has come halfway, by size or by number of responders.

T1 sequence (P21453 whole entry): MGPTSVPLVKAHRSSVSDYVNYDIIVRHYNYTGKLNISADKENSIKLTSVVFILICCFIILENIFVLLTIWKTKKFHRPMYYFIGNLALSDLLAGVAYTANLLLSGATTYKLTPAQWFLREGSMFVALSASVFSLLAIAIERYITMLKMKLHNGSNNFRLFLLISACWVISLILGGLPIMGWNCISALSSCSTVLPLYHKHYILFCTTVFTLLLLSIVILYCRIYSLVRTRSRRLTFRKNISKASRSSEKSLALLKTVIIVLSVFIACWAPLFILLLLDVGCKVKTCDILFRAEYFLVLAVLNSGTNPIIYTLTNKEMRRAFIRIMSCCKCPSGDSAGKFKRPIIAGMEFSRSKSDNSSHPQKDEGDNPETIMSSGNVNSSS

`O=C(O)CCNCc1ccc2c(c1)CCC/C2=N\OCc1ccc(C2CCCCC2)c(C(F)(F)F)c1` [Example 1, 3-{[5-(4-Cyclohexyl-3-trifluoromethyl-benzyloxyimino)-5,6,7,8-tetrahydro-naphthalen-2-ylmethyl]-amino}-propionic Acid] came in with an EC50 on human EDG-1 of 0.78 nM. The “selectivity for EDG-1 compared to one or more of the other receptors including EDG-3, EDG-5, EDG-6 and EDG-8” value in assay [1] is “at least 1000 fold”.

As to `O=C(O)C1CN(Cc2ccc3c(c2)CCC/C3=N\OCc2ccc(C3CCCCC3)c(C(F)(F)F)c2)C1` [Example 2, 1-[5-(4-Cyclohexyl-3-trifluoromethyl-benzyloxyimino)-5,6,7,8-tetrahydro-naphthalen-2-ylmethyl]-azetidine-3-carboxylic acid], in assay [2], the ED50 came to 0.2 mg/kg.
